In general, IC50 refers to the concentration needed to halve the response being measured. By Ki is commonly meant the equilibrium dissociation constant of an inhibitor or competing ligand from its target. Read a high Ki as a looser hold on the target.

The values that follow come from patent US8193191B2, “Urotensin II receptor antagonists” (Janssen Pharmaceutica N.V., priority 2006, dated 2012).

Structures are written as SMILES. Where “and” joins values, the source holds several entries; their conditions need not be identical. Equal values may be shown once. Read-outs that look alike come from different tables or passages of the source.

Experiment [1] addresses T1, rat GPR14 (U-II receptor) (Rattus norvegicus, UniProt P49684).
T1 construct: expressed in transfected cells
T1 sequence (P49684 1-386): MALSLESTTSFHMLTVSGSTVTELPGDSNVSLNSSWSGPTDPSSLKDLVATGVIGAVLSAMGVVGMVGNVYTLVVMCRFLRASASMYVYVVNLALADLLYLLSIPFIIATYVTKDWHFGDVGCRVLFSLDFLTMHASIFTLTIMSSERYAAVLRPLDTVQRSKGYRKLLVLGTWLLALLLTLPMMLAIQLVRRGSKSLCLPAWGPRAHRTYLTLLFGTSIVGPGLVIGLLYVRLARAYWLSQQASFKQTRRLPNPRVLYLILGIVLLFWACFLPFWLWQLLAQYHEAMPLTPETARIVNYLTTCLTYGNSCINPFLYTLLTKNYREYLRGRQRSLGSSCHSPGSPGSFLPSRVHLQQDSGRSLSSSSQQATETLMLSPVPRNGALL
Description: Rat UII Calcium Mobilization FLIPR Assay. The experiment is classed as cell-based. Particulars: for inhibition at 10 µM / inhibition at 50 µM: CHO, 5 min, agonist-induced Ca2+ mobilization (FLIPR), CHO cells with rat UII receptor; for inhibition at 10 µM: 10 μM compound, read-out: % I @ 10; for inhibition at 50 µM: 50 μM compound, read-out: % I @ 50. An outline of the steps:
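Fluorescent calcium signals were recorded at room temperature (23° C) by FLIPR. Stable rat U-II receptor CHO lines had been dye-loaded for 1 h at 37° C in pH 7.4 HBSS containing 20 mM HEPES, 0.1% BSA and 2.5 mM probenecid.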

The target in experiment [2] is T2, endogenous human UII receptor (Homo sapiens, UniProt Q9UKP6).
T2 sequence (Q9UKP6 1-389): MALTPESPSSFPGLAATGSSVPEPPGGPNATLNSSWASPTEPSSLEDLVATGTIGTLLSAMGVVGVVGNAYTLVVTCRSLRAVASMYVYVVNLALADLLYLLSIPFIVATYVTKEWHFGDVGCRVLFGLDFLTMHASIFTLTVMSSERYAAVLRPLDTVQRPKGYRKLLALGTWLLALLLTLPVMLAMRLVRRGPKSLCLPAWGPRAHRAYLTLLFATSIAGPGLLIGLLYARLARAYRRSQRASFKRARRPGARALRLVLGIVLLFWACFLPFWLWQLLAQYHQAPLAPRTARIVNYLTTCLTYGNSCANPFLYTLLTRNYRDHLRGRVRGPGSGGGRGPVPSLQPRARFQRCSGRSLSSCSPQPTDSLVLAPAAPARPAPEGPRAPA
Briefly: Human Radioligand Binding Assay ((^125I)-U-II binding to human skeletal muscle myoblasts).

Where [3] appears, read: Inhibition of Acetyl-cyclic[Cys-Phe-Trp-Lys-(2-Nal)-Cys]-NH2 induced Ca2+ mobilization (FLIPR) in CHO cells transfected with rat UII receptor, read-out: IC50.
Setting [4] is: Inhibition of human UII binding to human skeletal muscle myoblasts containing endogenous human UII receptor.

`COc1ccc(CN2C(=O)c3cccc(N4CCN([C@H](C)c5ccccc5)CC4)c3C2=O)cc1OC` [Cpd 1, 2-(3,4-dimethoxy-benzyl)-4-[4-(1R)-(1-phenyl-ethyl)-piperazin-1-yl]-isoindole-1,3-dione]: in experiment [1], the inhibition at 10 µM turned out to be 99% and the inhibition at 50 µM amounted to 99%. Further, in experiment [1] (setting [3]), the IC50 is 46 nM and 84 nM. For the same compound, the affinity in experiment [2] (setting [4]), expressed as Ki, was 570 nM.
As for `COc1ccc(C(C)N2C(=O)c3cccc(N4CCN([C@H](C)c5ccccc5)CC4)c3C2=O)cc1OC` (stereo partly drawn) [Cpd 2, 2-[1-(3,4-dimethoxy-phenyl)-ethyl]-4-[4-(1R)-(1-phenyl-ethyl)-piperazin-1-yl]-isoindole-1,3-dione], in experiment [1], the inhibition at 10 µM worked out at 101% and the inhibition at 50 µM is 103%. Besides, the IC50 in experiment [1] (setting [3]) was determined as 70 nM. Also, the Ki in experiment [2] (setting [4]) was 310 nM.
As to `COc1ccc([C@H](C)N2C(=O)c3cccc(N4CCN([C@H](C)c5ccccc5)CC4)c3C2=O)cc1OC` [Cpd 3, 2-[(S)-1-(3,4-dimethoxy-phenyl)-ethyl]-4-[4-(1R)-(1-phenyl-ethyl)-piperazin-1-yl]-isoindole-1,3-dione], in experiment [1], the inhibition at 10 µM was determined as 100% and the inhibition at 50 µM was found to be 101%. Further, the IC50 in experiment [1] (setting [3]) is 130 nM. The Ki in experiment [2] (setting [4]) was found to be 160 nM.
The corresponding values for `COc1ccc([C@@H](C)N2C(=O)c3cccc(N4CCN([C@H](C)c5ccccc5)CC4)c3C2=O)cc1OC` [Cpd 4, (R)-2-[1-(3,4-dimethoxy-phenyl)-ethyl]-4-[4-(1R)-(1-phenyl-ethyl)-piperazin-1-yl]-isoindole-1,3-dione] are 100%, 100%, 150 nM and 230 nM.
As for `COc1ccc(CN2C(=O)c3cccc(N4CCN(Cc5ccccc5)CC4)c3C2=O)cc1OC` [Cpd 5, 4-(4-benzyl-piperazin-1-yl)-2-(3,4-dimethoxy-benzyl)-isoindole-1,3-dione], in experiment [1], the inhibition at 10 µM is 99% and the inhibition at 50 µM came out at 99%. Further, the IC50 in experiment [1] (setting [3]) came out at 151 nM. In experiment [2], this compound returned a Ki of 1500 nM.
Take `COc1ccc(CN2C(=O)c3cccc(N4CCN(C(C)c5ccccc5)CC4)c3C2=O)cc1OC` (centres unmarked) [Cpd 6, 2-(3,4-dimethoxy-benzyl)-4-[4-(1-phenyl-ethyl)-piperazin-1-yl]-isoindole-1,3-dione]: in experiment [1], the inhibition at 10 µM is 103% and the inhibition at 50 µM is 102%. Also, the IC50 in experiment [1] (setting [3]) worked out at 160 nM. In experiment [2], this compound showed a Ki of 1200 nM.
On to `COc1ccc(CN2C(=O)c3cccc(N4CC5CCC(C4)N5Cc4ccccc4)c3C2=O)cc1OC` [Cpd 7, 4-(8-benzyl-3,8-diaza-bicyclo[3.2.1]oct-3-yl)-2-(3,4-dimethoxy-benzyl)-isoindole-1,3-dione], for which the inhibition at 10 µM in experiment [1] worked out at 89%. For the same compound, the IC50 in experiment [1] (setting [3]) is 220 nM and 180 nM. In addition, in experiment [2], the affinity, expressed as Ki, was 200 nM.
As for `CCC(c1ccc(OC)c(OC)c1)N1C(=O)c2cccc(N3CCN([C@H](C)c4ccccc4)CC3)c2C1=O` (stereo partly drawn) [Cpd 8, 2-[1-(3,4-dimethoxy-phenyl)-propyl]-4-[4-(1R)-(1-phenyl-ethyl)-piperazin-1-yl]-isoindole-1,3-dione], in experiment [1], the inhibition at 10 µM stood at 100% and the inhibition at 50 µM is 100%. Moreover, the IC50 in experiment [1] (setting [3]) came out at 180 nM. Further, the Ki in experiment [2] (setting [4]) stood at 310 nM.
In the case of `COc1ccc(CN2C(=O)c3c(Cl)ccc(N4CC5CCC(C4)N5Cc4ccccc4)c3C2=O)cc1OC` [Cpd 9, 4-(8-benzyl-3,8-diaza-bicyclo[3.2.1]oct-3-yl)-7-chloro-2-(3,4-dimethoxy-benzyl)-isoindole-1,3-dione], in experiment [1], the inhibition at 10 µM was determined as 91% and the inhibition at 50 µM came to 81%. For the same compound, in experiment [1] (setting [3]), the IC50 stood at 190 nM. In experiment [2], this compound gave a Ki of 660 nM.
Take `COc1ccc(CN2C(=O)c3cccc(N4CCN(Cc5ccc(F)cc5)CC4)c3C2=O)cc1OC` [Cpd 12, 2-(3,4-dimethoxy-benzyl)-4-[4-(4-fluoro-benzyl)-piperazin-1-yl]-isoindole-1,3-dione]: the IC50 in experiment [1] (setting [3]) was 2800 nM and 370 nM. This compound also registered a Ki in experiment [2] of 4500 nM.
Take `CCC(c1ccccc1)N1CCN(c2cccc3c2C(=O)N(Cc2ccc(OC)c(OC)c2)C3=O)CC1` (centres unmarked) [Cpd 13, 2-(3,4-dimethoxy-benzyl)-4-[4-(1-phenyl-propyl)-piperazin-1-yl]-isoindole-1,3-dione]: in experiment [1], the inhibition at 10 µM came to 95% and the inhibition at 50 µM turned out to be 99%. In experiment [1] (setting [3]), the IC50 was determined as 410 nM. The same compound had a Ki in experiment [2] of 4000 nM.
The corresponding values for `COc1cc(CN2C(=O)c3cccc(N4CCN([C@H](C)c5ccccc5)CC4)c3C2=O)ccc1O` [Cpd 15, 2-(4-hydroxy-3-methoxy-benzyl)-4-[4-(1R)-(1-phenyl-ethyl)-piperazin-1-yl]-isoindole-1,3-dione] are 100%, 100%, 820 nM and 5200 nM.
For `COc1ccc(CN2C(=O)c3cccc(N4CCN(Cc5cccc(F)c5)CC4)c3C2=O)cc1OC` [Cpd 17, 2-(3,4-dimethoxy-benzyl)-4-[4-(3-fluoro-benzyl)-piperazin-1-yl]-isoindole-1,3-dione], in experiment [1], the inhibition at 10 µM stood at 99% and the inhibition at 50 µM worked out at 101%. Moreover, the IC50 in experiment [1] (setting [3]) was 1100 nM. This compound showed a Ki in experiment [2] of 3500 nM.
The like results for `CCOc1ccc(CN2C(=O)c3cccc(N4CCN([C@H](C)c5ccccc5)CC4)c3C2=O)cc1OC` [Cpd 18, 2-(4-ethoxy-3-methoxy-benzyl)-4-[4-(1R)-(1-phenyl-ethyl)-piperazin-1-yl]-isoindole-1,3-dione] were, in that order, 98%, 101%, 1400 nM and 2900 nM.
As for `COc1ccc(CN2C(=O)c3cccc(C4=CCN(Cc5ccccc5)CC4)c3C2=O)cc1OC` [Cpd 19, 4-(1-benzyl-1,2,3,6-tetrahydro-pyridin-4-yl)-2-(3,4-dimethoxy-benzyl)-isoindole-1,3-dione], in experiment [1], the inhibition at 10 µM was determined as 94% and the inhibition at 50 µM came to 100%. For the same compound, in experiment [1] (setting [3]), the IC50 is 1500 nM. In experiment [2], this compound showed a Ki of 5200 nM.
The corresponding values for `COc1ccc(CN2C(=O)c3cccc(N4CCN(C(C)(C)c5ccccc5)CC4)c3C2=O)cc1OC` [Cpd 28, 2-(3,4-dimethoxy-benzyl)-4-[4-(1-methyl-1-phenyl-ethyl)-piperazin-1-yl]-isoindole-1,3-dione] are 75%, 101%, 4200 nM and 5500 nM.
With `COc1ccc(C(CN(C)C)N2C(=O)c3cccc(N4CCN([C@H](C)c5ccccc5)CC4)c3C2=O)cc1OC` (stereo partly drawn) [Cpd 63, 2-[1-(3,4-dimethoxy-phenyl)-2-dimethylamino-ethyl]-4-[4-(1R)-(1-phenyl-ethyl)-piperazin-1-yl]-isoindole-1,3-dione], in experiment [1], the inhibition at 10 µM stood at 102% and the inhibition at 50 µM stood at 102%. Also, the IC50 in experiment [1] (setting [3]) amounted to 400 nM. Moreover, the Ki in experiment [2] came to 2800 nM.
As to `COc1ccc(C(CN)N2C(=O)c3cccc(N4CCN([C@H](C)c5ccccc5)CC4)c3C2=O)cc1OC` (stereo partly drawn) [Cpd 64, 2-[2-amino-1-(3,4-dimethoxy-phenyl)-ethyl]-4-[4-(1R)-(1-phenyl-ethyl)-piperazin-1-yl]-isoindole-1,3-dione], in experiment [1], the inhibition at 10 µM was found to be 101% and the inhibition at 50 µM was 98%. Besides, the IC50 in experiment [1] (setting [3]) amounted to 300 nM. The affinity in experiment [2] corresponds to a Ki of 700 nM.
As for `COc1ccc([C@@H](CCCNS(=O)(=O)c2sc3ccc(F)cc3c2C)N2C(=O)c3cccc(N4CCN([C@H](C)c5ccccc5)CC4)c3C2=O)cc1OC` [Cpd 137, (R)-5-fluoro-3-methyl-benzo[b]thiophene-2-sulfonic acid (4-(3,4-dimethoxy-phenyl)-4-{1,3-dioxo-4-[4-(1R)-(1-phenyl-ethyl)-piperazin-1-yl]-1,3-dihydro-isoindol-2-yl}-butyl)-amide], in experiment [1] (average value for the compound tested, read-out: Rat UII FLIPR Average IC50), the IC50 came out at 2200 nM.
As for `COc1ccc([C@@H](CCCNS(N)(=O)=O)N2C(=O)c3cccc(N4CCN([C@H](C)c5ccccc5)CC4)c3C2=O)cc1OC` [Cpd 141, (R)-N′-[(4-(3,4-dimethoxy-phenyl)-4-{1,3-dioxo-4-[4-(1R)-(1-phenyl-ethyl)-piperazin-1-yl]-1,3-dihydro-isoindol-2-yl}-butyl)]-sulfamide], the Ki in experiment [2] was 17 nM.
